In article PMC7385036, “An allosteric pocket for inhibition of bacterial Enzyme I identified by NMR-based fragment screening” (Journal of Structural Biology: X, 2020):
Where two headings read alike, the source gives them in different places.

What was measured:
EIC domain of EI = molecular target: T1, EIC domain of EI (Escherichia coli, UniProt P08839); assay: CSP-based NMR titration experiments (equilibrium dissociation constant); format: binding, E. coli
T1 construct: made in house
From the text: The affinity of the newly discovered EI ligands was investigated by acquiring CSP-based, NMR titration experiments on ^15N-labeled EIN or EIC at increasing concentration of small molecule ([Fielding, 2007]). The data were fit using a standard equilibrium dissociation equation ([Granot, 1983]) to obtain the equilibrium dissociation constant (KD) per each analyzed complex (Fig. 2d). This analysis identified six small molecules that bind the EIC domain of EI with low mM affinity (Fig. 2e).
NMR titration experiments were measured at 37 °C in 20 mM Tris (pH 7.4), 100 mM NaCl, 4 mM MgCl2, 2 mM DTT, and 5% D2O. The protein concentration was 400 µM and the concentration of small molecule was varied between 0 and 8 mM. Spectra were processed using NMRPipe ([Delaglio et al., 1995]) and analyzed using the program SPARKY (http://www.cgl.ucsf.edu/home/sparky). Assignment of the ^1H-^15N cross-peaks for the EIC-small molecule complexes was performed by titration experiments, following the change in ^1H-^15N cross-peak positions as a function of added small molecule. Weighted combined ^1H/^15N chemical shift perturbations (ΔH/N) resulting from the addition of increasing concentrations of small molecule were calculated using the following equation ([Mulder et al., 1999]):(1) ΔH/N=ΔδHWH^2+ΔδNWN^2 where WH (=1) and WN (=0.154) are weighting factor for the ^1H and ^15N amide shifts, respectively. ΔδH and ΔδN are the ^1H and ^15N chemical shift differences in ppm, respectively, between free and bound states. The equilibrium dissociation constants (KD) for the EIC-inhibitor complexes were obtained by fitting the changes in ΔH/N with increasing concentration of small molecule using the equation ([Granot, 1983]):(2) ΔH/N=Δ0P+L+KD-P+L-KD^2-4PL/2P where Δ0 is the weighted combined ^1H/^15N chemical shift at saturation, and P and L are the protein and small molecule concentrations, respectively.

full-length EI [1] = molecular target: T2, full-length EI (Escherichia coli, UniProt P08839); conditions: read-out: Km,0 (Km in the absence of inhibitor); PEP as substrate of EI; kept fixed to its literature value, no reference given; cited from earlier work
full-length EI [2] = molecular target: T2, full-length EI; assay: Enzyme kinetic assay of phosphoryl transfer from PEP to HPr by 1H-15N SOFAST NMR; format: biochemical, E. coli; parameters: phosphoryl transfer from PEP to HPr catalyzed by full-length EI; made in house; conditions: 0.0, 1.5 and 6.0 mM compound, 25 °C, pH 7.4
From the text: In such graphs, the y and x intercepts are equivalent to the inverse of the maximum velocity (1/Vmax) and the negative inverse of the Michaelis constant (−1/Km), respectively.
Vmax,0 (the value of Vmax in the absence of inhibitor) was optimized to maximize the agreement between experimental and simulated data (Fig. 3c).
Enzyme kinetic assay we run by measuring the rate of phosphoryl transfer from PEP to HPr catalyzed by full-length EI by using ^1H-^15N SOFAST NMR spectra as described previously ([Nguyen et al., 2018]). Reaction were run at 25 °C in 20 mM Tris (pH 7.4), 100 mM NaCl, 4 mM MgCl2, 2 mM DTT, and 5% D2O. The assay was performed in triplicate. The enzyme kinetic data measured at different concentration of inhibitor were fit using a completive or mixed inhibition model:(3) Competitiveinhibition-v0=Vmax,0PEP/Km,01+I/KI,S+PEP (4) Mixedinhibition-v0=Vmax,0PEP/Km,01+I/KI,S+PEP1+I/KI,I where v0 is the initial velocity of the enzymatic reaction, [PEP] and [I] are the concentration of substrate and inhibitor, respectively, KI,s is the equilibrium dissociation constant for the enzyme-inhibitor complex, KI,I is the dissociation constant for the interaction between the inhibitor and the enzyme-PEP complex, and Km,0 and Vmax,0 are the Michaelis constant and maximum velocity in the absence of inhibitors, respectively. The seven measured datasets (in the absence of inhibitor, and in the presence of two concentrations of each inhibitor) were fit globally.

[3] = 15N-labeled EIC 400 µM, small molecule 0-8 mM, 37 °C, pH 7.4, read-out: KD

Structure (SMILES) | Kd (EIC domain of EI; [3]) | Type of inhibition of EI (Lineweaver-Burk analysis) (full-length EI [2]) | further results
NCc1ccc(Br)s1 [compound 4] | 2.9 mM | – | –
CC(C)Oc1ccc(Cl)cc1CN [compound 5] | 4.3 mM | – | –
C=C(OP(=O)(O)O)C(=O)O [PEP, phosphoenolpyruvate] | – | – | Km (full-length EI [1]): 350 µM
NCc1ccc(-c2ccc(F)cc2)o1 [compound 1] | 2.5 mM | competitive inhibitors | –
Cc1nn(Cc2ccc(F)cc2)c(C)c1N [compound 3] | 3.2 mM | mixed inhibitor | Kd (EIC domain of EI; EIC, residues in the allosteric binding pocket fitted separately, read-out: KD, CSP titration data fitted for the residues in the allosteric binding pocket): 3.2 ± 0.2 mM; Kd (EIC domain of EI; EIC, residues in the β3α3 loop fitted separately, read-out: KD, CSP titration data fitted for the residues in the β3α3 loop): 3.5 ± 0.3 mM
CNCc1[nH]c2ccccc2c1C [compound 2] | 2.6 mM | competitive inhibitors | –
CC(CN)Nc1ccc([N+](=O)[O-])cc1 (stereo not drawn) [compound 6] | 4.1 mM | – | –
